Laboratory results: ChEMBL document CHEMBL1201862, “PubChem BioAssay data set” (2004)
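Assay format: 96-well plates, 48-hour exposure. At the GI50, growth is halved.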 Active and inactive are the calls of the source. No stated cut-off is given here; in the data, active = GI50 up to about 1.1 µM and inactive = higher.

How the values were obtained:
Assay in all cases: NCI-60 cell line screen, 48 h
[1] = tested on: 786-0
[2] = tested on: A549
[3] = tested on: ACHN
[4] = tested on: CAKI-1
[5] = tested on: CCRF-CEM
[6] = tested on: COLO 205
[7] = tested on: DLD-1
[8] = tested on: DMS-273
[9] = tested on: EKVX
[10] = tested on: HCC 2998
[11] = tested on: HCT-116
[12] = tested on: HCT-15
[13] = tested on: HL-60
[14] = tested on: HOP-18
[15] = tested on: HT-29
[16] = tested on: IGROV-1
[17] = tested on: K562
[18] = tested on: KM12
[19] = tested on: LXFL 529
[20] = tested on: M14
[21] = tested on: M19-MEL
[22] = tested on: MOLT-4
[23] = tested on: Malme-3M
[24] = tested on: NCI-H226
[25] = tested on: NCI-H23
[26] = tested on: NCI-H460
[27] = tested on: NCI-H522
[28] = tested on: OVCAR-3
[29] = tested on: OVCAR-4
[30] = tested on: OVCAR-5
[31] = tested on: OVCAR-8
[32] = tested on: RPMI-8226
[33] = tested on: SF-268
[34] = tested on: SF-295
[35] = tested on: SF-539
[36] = tested on: SK-MEL-28
[37] = tested on: SK-MEL-2
[38] = tested on: SK-MEL-5
[39] = tested on: SK-OV-3
[40] = tested on: SN12C
[41] = tested on: SNB-75
[42] = tested on: SNB-78
[43] = tested on: TK-10
[44] = tested on: U-251
[45] = tested on: UACC-257
[46] = tested on: UO-31
[47] = tested on: XF498
[48] = tested on: A498
[49] = tested on: HOP-62
[50] = tested on: HOP-92
[51] = tested on: KM-20L2
[52] = tested on: LOX IMVI
[53] = tested on: RXF 393
[54] = tested on: RXF 631
[55] = tested on: SNB-19
[56] = tested on: SR
[57] = tested on: SW-620
[58] = tested on: UACC-62
[59] = tested on: DMS-114

**Q.** Which results are given for `CCCN(CCC)c1c([N+](=O)[O-])cc(C(=O)N(CCO)CCO)cc1[N+](=O)[O-]`?
**A.** GI50 [1]: > 100 µM (inactive); GI50 [2]: > 100 µM (inactive); GI50 [3]: > 100 µM (inactive); GI50 [4]: > 100 µM (inactive); GI50 [5]: > 100 µM (inactive); GI50 [6]: > 100 µM (inactive); GI50 [7]: > 100 µM (inactive); GI50 [8]: > 100 µM (inactive); GI50 [9]: 57.4 µM (inactive); GI50 [10]: > 100 µM (inactive); GI50 [11]: > 100 µM (inactive); GI50 [12]: > 100 µM; GI50 [13]: > 100 µM (inactive); GI50 [14]: > 100 µM (inactive); GI50 [15]: > 100 µM (inactive); GI50 [16]: > 100 µM (inactive); GI50 [17]: 61.4 µM (inactive); GI50 [18]: > 100 µM (inactive); GI50 [19]: > 100 µM (inactive); GI50 [20]: > 100 µM (inactive); GI50 [21]: > 100 µM (inactive); GI50 [22]: > 100 µM (inactive); GI50 [23]: > 100 µM (inactive); GI50 [24]: > 100 µM (inactive); GI50 [25]: > 100 µM (inactive); GI50 [26]: > 100 µM (inactive); GI50 [27]: > 100 µM (inactive); GI50 [28]: > 100 µM (inactive); GI50 [29]: > 100 µM (inactive); GI50 [30]: > 100 µM (inactive); GI50 [31]: > 100 µM (inactive); GI50 [32]: > 100 µM (inactive); GI50 [33]: > 100 µM (inactive); GI50 [34]: > 100 µM (inactive); GI50 [35]: > 100 µM (inactive); GI50 [36]: > 100 µM (inactive); GI50 [37]: > 100 µM (inactive); GI50 [38]: > 100 µM (inactive); GI50 [39]: > 100 µM (inactive); GI50 [40]: > 100 µM (inactive); GI50 [41]: > 100 µM (inactive); GI50 [42]: > 100 µM (inactive); GI50 [43]: > 100 µM (inactive); GI50 [44]: > 100 µM (inactive); GI50 [45]: > 100 µM (inactive); GI50 [46]: > 100 µM (inactive); GI50 [47]: 97.1 µM (inactive)

**Q.** What does the source list for `O=c1c2cc(Cl)ccc2sc2cccc(Cl)c12`?
**A.** GI50 [1]: > 100 µM (inactive); GI50 [48]: > 100 µM (inactive); GI50 [2]: > 100 µM (inactive); GI50 [3]: > 100 µM (inactive); GI50 [4]: > 100 µM (inactive); GI50 [5]: > 100 µM (inactive); GI50 [6]: > 100 µM (inactive); GI50 [8]: > 100 µM (inactive); GI50 [9]: > 100 µM (inactive); GI50 [11]: > 100 µM (inactive); GI50 [12]: > 100 µM; GI50 [13]: > 100 µM (inactive); GI50 [49]: > 100 µM (inactive); GI50 [50]: > 100 µM (inactive); GI50 [15]: > 100 µM (inactive); GI50 [16]: > 100 µM (inactive); GI50 [17]: > 100 µM (inactive); GI50 [51]: > 100 µM (inactive); GI50 [18]: > 100 µM (inactive); GI50 [52]: > 100 µM (inactive); GI50 [19]: > 100 µM (inactive); GI50 [20]: > 100 µM (inactive); GI50 [21]: > 100 µM (inactive); GI50 [22]: > 100 µM (inactive); GI50 [24]: > 100 µM (inactive); GI50 [25]: > 100 µM (inactive); GI50 [26]: > 100 µM (inactive); GI50 [27]: > 100 µM (inactive); GI50 [28]: > 100 µM (inactive); GI50 [29]: > 100 µM (inactive); GI50 [30]: > 100 µM (inactive); GI50 [31]: > 100 µM (inactive); GI50 [32]: > 100 µM (inactive); GI50 [53]: > 100 µM (inactive); GI50 [54]: > 100 µM (inactive); GI50 [33]: > 100 µM (inactive); GI50 [34]: > 100 µM (inactive); GI50 [35]: > 100 µM (inactive); GI50 [36]: > 100 µM (inactive); GI50 [37]: > 100 µM (inactive); GI50 [40]: > 100 µM (inactive); GI50 [55]: > 100 µM (inactive); GI50 [42]: > 100 µM (inactive); GI50 [56]: > 100 µM (inactive); GI50 [57]: > 100 µM (inactive); GI50 [43]: > 100 µM (inactive); GI50 [44]: > 100 µM (inactive); GI50 [45]: > 100 µM (inactive); GI50 [58]: > 100 µM (inactive); GI50 [46]: > 100 µM (inactive)

**Q.** For `c1ccc2c3c([nH]c2c1)C1C2CCCCN2C(c2ccncc2)N1CC3` (configuration not stated), which GI50 [1] is on record?
**A.** The GI50 was 63.4 µM (inactive).

**Q.** And the GI50 [2]?
**A.** The GI50 was 32.2 µM (inactive).

**Q.** What about the GI50 [3] of the same compound?
**A.** Its GI50 is 46.1 µM (inactive).

**Q.** And the GI50 [4]?
**A.** The GI50 was 34.4 µM (inactive).

**Q.** What about the GI50 [5] of the same compound?
**A.** The GI50 was 33 µM (inactive).

**Q.** What about the GI50 [6] of the same compound?
**A.** Its GI50 is 35 µM (inactive).

**Q.** And the GI50 [59]?
**A.** The GI50 was 27.2 µM (inactive).

**Q.** And the GI50 [8]?
**A.** The GI50 was 28.6 µM (inactive).

**Q.** And the GI50 [9]?
**A.** Its GI50 is 54.3 µM (inactive).

**Q.** What about the GI50 [11] of the same compound?
**A.** The GI50 was 35 µM (inactive).

**Q.** What about the GI50 [12] of the same compound?
**A.** The GI50 was 35.5 µM.

**Q.** And the GI50 [13]?
**A.** Its GI50 is 21.5 µM (inactive).

**Q.** And the GI50 [49]?
**A.** Its GI50 is 52.5 µM (inactive).

**Q.** What about the GI50 [15] of the same compound?
**A.** Its GI50 is 33.1 µM (inactive).

**Q.** What about the GI50 [17] of the same compound?
**A.** The GI50 was 32.1 µM (inactive).

**Q.** What about the GI50 [51] of the same compound?
**A.** The GI50 was 24 µM (inactive).

**Q.** And the GI50 [18]?
**A.** The GI50 was 35.9 µM (inactive).

**Q.** What about the GI50 [52] of the same compound?
**A.** Its GI50 is 37.2 µM (inactive).

**Q.** What about the GI50 [19] of the same compound?
**A.** Its GI50 is 38.1 µM (inactive).

**Q.** And the GI50 [20]?
**A.** The GI50 was 34.8 µM (inactive).

**Q.** And the GI50 [21]?
**A.** The GI50 was 37.2 µM (inactive).

**Q.** And the GI50 [22]?
**A.** Its GI50 is 43.3 µM (inactive).

**Q.** What about the GI50 [23] of the same compound?
**A.** Its GI50 is 34 µM (inactive).

**Q.** What about the GI50 [25] of the same compound?
**A.** Its GI50 is 34.4 µM (inactive).

**Q.** What about the GI50 [26] of the same compound?
**A.** Its GI50 is 29.6 µM (inactive).

**Q.** What about the GI50 [27] of the same compound?
**A.** Its GI50 is 39.2 µM (inactive).

**Q.** What about the GI50 [28] of the same compound?
**A.** Its GI50 is 44.1 µM (inactive).

**Q.** And the GI50 [29]?
**A.** Its GI50 is 61.5 µM (inactive).

**Q.** And the GI50 [30]?
**A.** Its GI50 is 35.7 µM (inactive).

**Q.** What about the GI50 [31] of the same compound?
**A.** The GI50 was 38.1 µM (inactive).

**Q.** And the GI50 [32]?
**A.** The GI50 was 27.4 µM (inactive).

**Q.** What about the GI50 [53] of the same compound?
**A.** Its GI50 is 29.3 µM (inactive).

**Q.** What about the GI50 [33] of the same compound?
**A.** Its GI50 is > 10 µM (inactive).

**Q.** What about the GI50 [34] of the same compound?
**A.** Its GI50 is 38.9 µM (inactive).

**Q.** And the GI50 [35]?
**A.** The GI50 was 58.3 µM (inactive).

**Q.** And the GI50 [36]?
**A.** Its GI50 is 39.9 µM (inactive).

**Q.** And the GI50 [37]?
**A.** The GI50 was 39.4 µM (inactive).

**Q.** What about the GI50 [38] of the same compound?
**A.** The GI50 was 43 µM (inactive).

**Q.** And the GI50 [39]?
**A.** Its GI50 is 36.6 µM (inactive).

**Q.** And the GI50 [40]?
**A.** The GI50 was 39.1 µM (inactive).

**Q.** What about the GI50 [55] of the same compound?
**A.** The GI50 was 25.4 µM (inactive).

**Q.** And the GI50 [41]?
**A.** Its GI50 is 22.8 µM (inactive).

**Q.** What about the GI50 [42] of the same compound?
**A.** The GI50 was 42.8 µM (inactive).

**Q.** What about the GI50 [56] of the same compound?
**A.** Its GI50 is 33.9 µM (inactive).

**Q.** And the GI50 [57]?
**A.** The GI50 was 33.5 µM (inactive).

**Q.** And the GI50 [44]?
**A.** Its GI50 is 39.9 µM (inactive).

**Q.** What about the GI50 [45] of the same compound?
**A.** The GI50 was 51.2 µM (inactive).

**Q.** And the GI50 [58]?
**A.** The GI50 was 36.5 µM (inactive).

**Q.** What about the GI50 [46] of the same compound?
**A.** The GI50 was 11.5 µM (inactive).

**Q.** And the GI50 [47]?
**A.** Its GI50 is 23.6 µM (inactive).
